Series [1] has as its system mouse models of type 2 diabetes. The series is described as follows: Insulin tolerance test after 4-week treatment (Example 20). The series is classed as in vivo, KK mice. Conditions: insulin 0.5 U/mL at 0.05 ml/10 g s.c. one hour after last dose of 4-week gavage treatment.
The test system is the same in series [2]. The series can be described thus: Oral glucose tolerance test after 4-week treatment (Example 20). The series is classed as in vivo, KK mice. Conditions: glucose 2.5 g/kg by gavage one hour after last dose of 4-week gavage treatment. How it is done:
2.4 Oral glucose tolerance test: one hour after the last administration, the remaining mice in the diabetic model control group, metformin treatment group, polypeptide treatment group and normal control group (10 mice in each group) after the selection in experiment 2.3 were administered by gavage with glucose at a dose of 2.5 g/kg.

For series [3] the test system is unchanged. The series is described as follows: Pancreas weight, H&E staining and immunohistochemistry after 4-week treatment (Example 20). The series is classed as in vivo. The note with it: KK mice sacrificed after treatment for four weeks by gavage. An excerpt:
2.5 All mice were sacrificed after treatment for four weeks, and the pancreatic tissues were weighed, stained with H&E and detected by immunohistochemistry.

The test system is the same in series [4]. The series is described as follows: Hypoglycemic activity of solid compositions, STZ/high-fat diet diabetic mice, gavage 4 weeks (Example 24). The series is classed as in vivo. The note with it: fasting; STZ + high-fat diet C57BL/6 mice; gavage once a day; compositions 2 mg/mL polypeptide O, metformin 20 mg/mL (100 mg/Kg), each 0.05 ml/10 g. Here is the method: Male C57BL/6 mice at 4 weeks of age, after adapting to the environment for 5 days, were randomly divided into normal control group (10 mice) and model-to-be established groups (90 mice). The mice in the normal control group were fed with normal diet. The mice in the model-to-be established groups were fed with high-fat diet and intraperitoneally injected with streptozotocin (STZ) in citrate buffer at a dose of 45 mg/kg. After injection, the mice were fasted for 1.5 hours and injected for 5 consecutive days, and then the diabetic mouse model was established. […] The mice with the fasting blood glucouse level between 10.0 and 20.0 mmol/L and at the same time having polydipsia and polyuria were selected out as the diabetic mice. Then, the selected diabetic mice were randomly divided into five groups: model control group, metformin group, Composition D group, […], and […], 10 mice in each group. The mice were administered by gavage with the corresponding drug: normal saline (100 μL for each mouse), metformin (0.05 ml/10 g), composition D (0.05 ml/10 g), composition E (0.05 ml/10 g) and composition F (0.05 ml/10 g), respectively, once a day for 4 weeks. The mice in normal control group were administered with normal saline (100 μL for each mouse). The diabetic mice were fed with high-fat diet continuously and drank water freely, and the mice in normal control group were fed with normal diet and drank water freely.

Series [5] has as its system diabetic mice. The series is described as follows: Fasting blood glucose in STZ diabetic mice, intragastric 4 weeks (Example 25). Type of series: in vivo, BALB/c mice. How it is done: (§1) Male BALB/c mice at 7 weeks of age, after adapting to the environment for 2 days, were randomly divided into normal control group (10 mice) and model-to-be established groups (70 mice). The mice in the normal control group were fed with normal diet. The mice in the model-to-be established groups were fed with high-fat diet, intraperitoneally injected with streptozotocin (STZ) in citrate buffer at a dose of 100 mg/kg, and then the diabetic mouse model was established. […] The mice with the blood glucouse level higher than 11.0 mmol/L and at the same time having polydipsia and polyuria were selected out as the diabetic mice. Then the selected diabetic mice were randomly divided into four groups: model control group, metformin group, Composition E group and Composition F group, 10 mice in each group. The mice were intragastric administered with the corresponding drugs: normal saline (100 μL for each mouse), metformin (0.05 ml/10 g), Composition E (0.05 ml/10 g) and Composition F (0.05 ml/10 g), respectively, once a day for 4 weeks. The mice in normal control group were administered with normal saline (100 μL for each mouse). The diabetic mice were fed with high-fat diet continuously and drank water freely, and the mice in normal control group were fed with normal diet and drank water freely.

Series [6] relates to diabetic mice. The series can be described thus: Serum TC and TG in STZ diabetic mice after 4 weeks (Example 25). Type of series: in vivo. The note with it: after 4 weeks intragastric treatment, STZ + high-fat diet BALB/c mice. Here is the method: as §1, with “The diabetic mice were fed with high-fat diet continuously and drank water freely, and the mice in normal control group were fed with normal diet and drank water freely.” left out
After the end of experiment, blood samples were collected from the eyeballs of the mice, serum was separated and the serum levels of TC and TG were detected.

The subject of series [7] is mouse models of type 2 diabetes. The series is described as follows: Blood glucose during 4-week gavage treatment, polypeptide mixture vs metformin (Example 20). Conditions: KK mice, metformin 20 mg/mL, each 0.05 ml/10 g.
The test system is the same in series [8]. The series is described as follows: Polypeptide mixture vs metformin, mouse models of type 2 diabetes, single gavage (Example 17). The note with it: KK mice, polypeptide 2 mg/mL, metformin 20 mg/mL, each 0.05 ml/10 g.
A further series has as its system normal mice. The series is described as follows: Polypeptide vs insulin on normal mice after tail vein injection (Example 10). The series is classed as in vivo, Kunming white mice. Conditions: single tail vein injection, polypeptide 2 mg/mL at 0.05 ml/10 g (10 mg/kg), insulin 0.5 U/mL (2.5 U/kg).
Series [9] has as its system mouse models of type 2 diabetes. The series is described as follows: Polypeptide mixture vs insulin, mouse models of type 2 diabetes, tail vein injection (Example 13). Conditions: KK mice, single tail vein injection, polypeptide 2 mg/mL, insulin 0.5 U/mL, each 0.05 ml/10 g.
Series [10] has the same test system. The series can be described thus: Polypeptide mixture vs insulin, mouse models of type 2 diabetes, subcutaneous injection (Example 14). Conditions: KK mice, single subcutaneous injection on the back, polypeptide 2 mg/mL, insulin 0.5 U/mL, each 0.05 ml/10 g.
Series [11] shares this test system. The series is described as follows: Polypeptide mixture vs insulin, mouse models of type 2 diabetes, intramuscular injection (Example 15). Conditions: KK mice, single intramuscular injection in the lateral thigh, polypeptide 2 mg/mL, insulin 0.5 U/mL, each 0.05 ml/10 g.
Another series concerns the target T1, pepsin (Sus scrofa, UniProt P00791).
T1 construct: purchased Sigma-Aldrich Company Ltd
The series can be described thus: Stability against pepsin in simulated gastric fluid, HPLC (Example 16). Type of series: in vitro ADME. The note with it: pH 1.5, 1 g pepsin per 100 mL, 37° C., 2 hours. How it is done: (§2) Polypeptides were subject to enzymatic hydrolysis in simulated gastric and simulated intestinal fluids, respectively, to verify whether the polypeptides were resistance to the enzymatic hydrolysis of digestive enzymes. Control experiments were performed with albumin.
Preparation of simulated gastric fluid: water was added to diluted hydrochloric acid with a concentration of 1 mol/L, to adjust the pH to 1.5. 1 g pepsin per 100 mL solution was added, and after homogeneously mixing, the solution was filtered through a 0.22 μm sterile filter for use.
(§3) 10 μL of the polypeptide solution (10 mg/mL) was added to the simulated gastric fluid (1 mL) and simulated intestinal fluid (1 mL), respectively, and after homogeneously mixing, the mixtures were incubated in a water bath at 37° C. for 2 hours.
(§4) 1 mg of dried albumin powder was added to the simulated gastric fluid (1 mL) and simulated intestinal fluid (1 mL), respectively, and after homogeneously mixing, the mixtures were incubateed in a water bath at 37° C. for 2 hours.
(§5) The above enzymatic mixtures were detected by using HPLC.
(§6) Chromatographic conditions: mobile phase, water (containing 0.1% TFA)+acetonitrile (containing 0.1% TFA), gradient elution from 15% to 50% acetonitrile for 25 min, flow rate of 1 mL/min, detection wavelength of 214 nm, injection volume of 20 ul.

A further series deals with trypsin. The series can be described thus: Stability against trypsin in simulated intestinal fluid, HPLC (Example 16). Type of series: in vitro ADME. The note with it: pH 6.8, 1 g trypsin per 100 mL, 37° C., 2 hours. Here is the method:
as §2
Preparation of simulated intestinal fluid: 6.8 g of potassium dihydrogen phosphate was dissolved in 500 mL water, 0.4% (w/w) NaOH was added to adjust the pH to 6.8, and water was added to make up 1 L. 1 g trypsin per 100 mL solution was added, and after homogeneously mixing, the solution was filtered through a 0.22 μm sterile filter for use.
as §3, §4, §5, §6

Where [12] appears, read: fasting, STZ (100 mg/kg) + high-fat diet BALB/c mice, intragastric once a day, compositions 2 mg/mL polypeptide O, metformin 200 mg/mL (1000 mg/kg), each 0.05 ml/10 g.
Where [13] appears, read: gavage once a day, polypeptide tablet suspension 2 mg/ml.

This is an account of results in US20200038478A1, “POLYPEPTIDE AND COMPOSITION THEREOF FOR TREATING DISEASES OF METABOLIC SYSTEM” (WUHAN GRECTECH CO., LTD., priority 2017, published 2020).

Structures can show the parent of a compound that is named as a salt.

T1 sequence (P00791 60-385): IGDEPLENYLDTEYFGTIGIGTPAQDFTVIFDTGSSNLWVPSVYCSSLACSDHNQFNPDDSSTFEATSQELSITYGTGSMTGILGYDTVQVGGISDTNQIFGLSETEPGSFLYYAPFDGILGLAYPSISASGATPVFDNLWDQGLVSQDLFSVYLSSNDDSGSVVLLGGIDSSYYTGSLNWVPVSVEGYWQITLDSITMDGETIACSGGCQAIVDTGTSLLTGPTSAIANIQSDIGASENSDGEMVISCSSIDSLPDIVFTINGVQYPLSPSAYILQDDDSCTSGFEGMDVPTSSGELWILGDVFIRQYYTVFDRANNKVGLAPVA

`CN(C)C(=N)N=C(N)N` [Metformin, Metformin hydrochloride]: in series [1], the “0 min blood glucose level” value is reported as 6.8 ± 0.8 mmol/L, the “30 min blood glucose level” value stood at 4.1 ± 1.1 mmol/L, the “60 min blood glucose level” value amounted to 4.8 ± 1.2 mmol/L and the “90 min blood glucose level” value turned out to be 5.4 ± 0.7 mmol/L. For the same molecule, in series [1], the “120 min blood glucose level” value turned out to be 6.2 ± 1.3 mmol/L. Moreover, in [2], the “0 min blood glucose level” value is 6.8 ± 0.8 mmol/L, the “30 min blood glucose level” value is given as 16.8 ± 4.1 mmol/L, the “60 min blood glucose level” value is reported as 13.4 ± 2.4 mmol/L and the “90 min blood glucose level” value was determined as 10.6 ± 3.2 mmol/L. The “120 min blood glucose level” value in series [2] amounted to 8.2 ± 1.7 mmol/L. In series [3], the “Pancreas weight/body weight (%)” value worked out at 1.32 ± 0.06%. Besides, in [4], the “Blood glucose level after four weeks” value is listed as 9.2 ± 0.9 mmol/L, the “Blood glucose level after one week” value was determined as 11.9 ± 0.6 mmol/L, the “Blood glucose level after three weeks” value was 11.3 ± 1.2 mmol/L and the “Blood glucose level after two weeks” value is 13.2 ± 0.5 mmol/L. For the same molecule, in the series with diabetic mice [5] (setting [12]), the “Blood glucose level after four weeks” value came to 8.0 ± 0.7 mmol/L, the “Blood glucose level after one week” value is 12.6 ± 0.7 mmol/L, the “Blood glucose level after three weeks” value came to 12.3 ± 1.0 mmol/L and the “Blood glucose level after two weeks” value came to 13.5 ± 0.7 mmol/L. For the same molecule, in the series on diabetic mice [5] (metformin at ultra-high-dose 1000 mg/kg), the “control of blood glucose (conclusion)” value is “could not control blood glucose effectively”. In the series on diabetic mice [6], the “TC” value was found to be 2.32 ± 0.78 mmol/L and the “TG” value is recorded as 1.87 ± 1.26 mmol/L. Also, the “Initial blood glucose level” value in series [7] (gavage once a day for 4 weeks, polypeptide tablets (mixture:hydroxypropyl methylcellulose 8:2) suspension 2 mg/ml, baseline) was found to be 9.3 ± 1.1 mmol/L. In series [7] (setting [13]), the “Blood glucose level after four weeks” value is 6.8 ± 0.8 mmol/L, the “Blood glucose level after one week” value was 8.1 ± 1.1 mmol/L, the “Blood glucose level after three weeks” value was determined as 7.3 ± 1.2 mmol/L and the “Blood glucose level after two weeks” value amounted to 7.2 ± 0.9 mmol/L. For the same molecule, in [8], the “Blood glucose level at 15 min after administration” value stood at 12.6 ± 1.2 mmol/L, the “Blood glucose level at 30 min after administration” value is 10.4 ± 0.9 mmol/L, the “Blood glucose level at 45 min after administration” value is reported as 9.3 ± 0.8 mmol/L and the “Blood glucose level at 60 min after administration” value came to 8.2 ± 0.5 mmol/L. For the same molecule, the “Blood glucose level prior to administration” value in series [8] (baseline) worked out at 14.2 ± 1.1 mmol/L.

In the case of Insulin, the “Blood glucose level at 15 min after administration” value is given as 5.2 ± 0.4 mmol/L in the series with normal mice, 8.5 ± 0.7 mmol/L in [9], 8.8 ± 0.8 mmol/L in [10] and 11.1 ± 0.9 mmol/L in series [11]. The “Blood glucose level at 30 min after administration” value in the series on normal mice turned out to be 3.6 ± 0.3 mmol/L; in series [9] it was 7.5 ± 0.4 mmol/L; in series [10], 7.1 ± 0.7 mmol/L; in series [11], 9.6 ± 0.7 mmol/L. Also, the “Blood glucose level at 45 min after administration” value in the series on normal mice came out at 2.7 ± 0.4 mmol/L; in series [9], 6.1 ± 0.4 mmol/L; in series [10], 6.4 ± 0.5 mmol/L; in [11] it was 7.3 ± 0.8 mmol/L. In addition, the “Blood glucose level at 60 min after administration” value stood at 2.2 ± 0.2 mmol/L in the series with normal mice, 4.8 ± 0.3 mmol/L in [9], 5.0 ± 0.4 mmol/L in [10] and 5.2 ± 0.4 mmol/L in [11]. In addition, the “Blood glucose level prior to administration” value is reported as 7.7 ± 0.6 mmol/L with normal mice (baseline), 14.3 ± 0.9 mmol/L in series [9] (baseline), 11.6 ± 1.1 mmol/L in [10] (baseline) and 13.4 ± 1.1 mmol/L in series [11] (baseline).

As to “Albumin: Serum albumin (bovine) standard”, in the series with pepsin, the “enzymatic hydrolysis in simulated gastric fluid” value was “completely enzymatically hydrolyzed”. Further, the “enzymatic hydrolysis in simulated intestinal fluid” value in the series with trypsin is “completely enzymatically hydrolyzed”.
